Consider 33 molecules from the Biogen ADME set (Fang et al. 2023).

Converted amounts (≈) assume the structure as drawn.

The conditions of this series: for aqueous solubility: pH 6.8.

Consider `Cc1ccc(Cl)c(OC[C@@]2(O)CN(C3CCCC3)CC[C@@H]2O)c1`, for which the MDR1-MDCK efflux ratio turned out to be 1.03; the intrinsic clearance, human liver microsomes was found to be 325 mL/min/kg; the intrinsic clearance, rat liver microsomes is 2250 mL/min/kg.
For the molecule `Cc1cc(NC(=O)C2CCN(c3ccncc3Cl)CC2)no1`, the MDR1-MDCK efflux ratio amounted to 0.457; the intrinsic clearance, human liver microsomes was 12.7 mL/min/kg; the intrinsic clearance, rat liver microsomes worked out at 186 mL/min/kg; the aqueous solubility (in general, how much of the substance goes into solution per volume) is 29 µg/mL (≈ 90.4 µM).
`Cc1cccc(OCCn2c(N)nc3ccccc32)c1` came in with an intrinsic clearance, human liver microsomes of 4.93 mL/min/kg; an intrinsic clearance, rat liver microsomes of 2200 mL/min/kg; an aqueous solubility of 39.1 µg/mL (≈ 146 µM).
`Cc1nc(C2CCN(c3ccc(F)cc3C#N)CC2)no1` returned an intrinsic clearance, human liver microsomes of 9.68 mL/min/kg and an intrinsic clearance, rat liver microsomes of 527 mL/min/kg.
Consider `Cc1ccc(C)c(OCCN(C)C(=O)c2ccc3c(c2)nnn3C)c1`, for which the MDR1-MDCK efflux ratio worked out at 1.23; the intrinsic clearance, human liver microsomes amounted to 59.5 mL/min/kg; the intrinsic clearance, rat liver microsomes is 1030 mL/min/kg; the aqueous solubility was found to be 29.2 µg/mL (≈ 86.4 µM).
Turning to `c1cc(CN2CCC(c3ccn[nH]3)CC2)ccn1`, the MDR1-MDCK efflux ratio was found to be 1.05; the intrinsic clearance, human liver microsomes is 5.91 mL/min/kg; the intrinsic clearance, rat liver microsomes was determined as 32.1 mL/min/kg; the aqueous solubility was determined as 28.2 µg/mL (≈ 116 µM).
As for `CC(C)c1ccc2occ(CC(=O)O)c2c1`, the intrinsic clearance, human liver microsomes is at most 4.74 mL/min/kg and the intrinsic clearance, rat liver microsomes is at most 10.7 mL/min/kg.
Turning to `Cn1ncnc1COc1nn2c(-c3c(F)cccc3F)nnc2cc1C1CCC1`, the MDR1-MDCK efflux ratio is 73.4; the intrinsic clearance, human liver microsomes was at most 4.74 mL/min/kg; the intrinsic clearance, rat liver microsomes worked out at 40.8 mL/min/kg; the aqueous solubility worked out at 41.4 µg/mL (≈ 104 µM).
`COc1ncccc1CNc1c(C#N)cnc2c(C)cc(F)cc12` showed an intrinsic clearance, human liver microsomes of 156 mL/min/kg and an intrinsic clearance, rat liver microsomes of 1250 mL/min/kg.
With `COc1ccc(Cc2cccc(C3CCN(C(=O)C4CCCC4)CC3)n2)cc1`, the MDR1-MDCK efflux ratio came out at 0.66; the intrinsic clearance, human liver microsomes stood at 114 mL/min/kg; the intrinsic clearance, rat liver microsomes amounted to 883 mL/min/kg; the aqueous solubility worked out at 25.8 µg/mL (≈ 68.2 µM).
Take `Cc1cc(Nc2ccc(F)cn2)cc(C2CCN(C(=O)COc3ccccc3)C2)n1` (stereo not given): the MDR1-MDCK efflux ratio was found to be 15.5; the intrinsic clearance, human liver microsomes was determined as 106 mL/min/kg; the intrinsic clearance, rat liver microsomes is 664 mL/min/kg.
In the case of `Cc1ccc(C)c(NC(=O)CN2CCCN(c3ccc(C(F)(F)F)cn3)CC2)c1`, the MDR1-MDCK efflux ratio was determined as 0.959; the intrinsic clearance, human liver microsomes was determined as 447 mL/min/kg; the intrinsic clearance, rat liver microsomes worked out at 1940 mL/min/kg; the aqueous solubility was 11.9 µg/mL (≈ 29.4 µM).
Take `Cc1ccc(-c2ccc(=O)n(Cc3ccncc3)n2)cc1`: the MDR1-MDCK efflux ratio amounted to 0.617; the intrinsic clearance, human liver microsomes amounted to 41.7 mL/min/kg; the intrinsic clearance, rat liver microsomes is 2400 mL/min/kg; the aqueous solubility is 42.6 µg/mL (≈ 154 µM).
The molecule `COc1ccc(OC)c(C(=O)/C=C/c2ccccc2)c1` came in with an intrinsic clearance, human liver microsomes of 163 mL/min/kg and an intrinsic clearance, rat liver microsomes of 1960 mL/min/kg.
Take `NS(=O)(=O)N1CCN(Cc2c(F)cccc2N2CCCC2)CC1`: the MDR1-MDCK efflux ratio was found to be 1.75; the intrinsic clearance, human liver microsomes was 24.2 mL/min/kg; the intrinsic clearance, rat liver microsomes came out at 1280 mL/min/kg.
Consider `Cc1sc2ncnc(OCC(=O)NC3CCCCC3)c2c1C`, for which the MDR1-MDCK efflux ratio came out at 1.59; the intrinsic clearance, human liver microsomes was found to be 34.8 mL/min/kg; the intrinsic clearance, rat liver microsomes amounted to 377 mL/min/kg; the aqueous solubility was determined as 17.2 µg/mL (≈ 54 µM).
In the case of `CC(C)CC(=O)Nc1cccnc1N(C)C`, the MDR1-MDCK efflux ratio came out at 0.597; the intrinsic clearance, human liver microsomes is at most 4.74 mL/min/kg; the intrinsic clearance, rat liver microsomes is 57.9 mL/min/kg; the aqueous solubility is 30.3 µg/mL (≈ 137 µM).
Regarding `CCOc1cc(N2CCOC3(CCCC3)C2)ncn1`, the MDR1-MDCK efflux ratio is 0.579; the intrinsic clearance, human liver microsomes was 37.4 mL/min/kg; the intrinsic clearance, rat liver microsomes came out at 631 mL/min/kg.
Regarding `O=C(O)c1ccccc1-n1cnc(CN2CCCC2)c1`, the MDR1-MDCK efflux ratio was determined as 2.49; the intrinsic clearance, human liver microsomes was at most 4.74 mL/min/kg; the intrinsic clearance, rat liver microsomes was at most 10.7 mL/min/kg; the aqueous solubility was 38.8 µg/mL (≈ 143 µM).
On the same counts, the results for `C1CCC(OCc2noc(C3CC3)n2)CC1` are 0.884, 34 mL/min/kg, 372 mL/min/kg and 16.2 µg/mL (≈ 72.9 µM).
Consider `CN(C)CC(C)(C)CNc1cn[nH]c(=O)c1Br`, for which the MDR1-MDCK efflux ratio was 0.676; the intrinsic clearance, human liver microsomes is 8.54 mL/min/kg; the intrinsic clearance, rat liver microsomes came to 43.9 mL/min/kg.
Turning to `CCCC(=O)Nc1ccc(-n2cccn2)nc1`, the MDR1-MDCK efflux ratio was 0.559; the intrinsic clearance, human liver microsomes is at most 4.74 mL/min/kg; the intrinsic clearance, rat liver microsomes is 31.8 mL/min/kg; the aqueous solubility turned out to be 45.2 µg/mL (≈ 196 µM).
For the molecule `CN(C)C(=O)c1ccc(NC(=O)c2cccc(F)c2)cc1`, the MDR1-MDCK efflux ratio turned out to be 0.927; the intrinsic clearance, human liver microsomes was found to be 9.98 mL/min/kg; the intrinsic clearance, rat liver microsomes turned out to be 69.2 mL/min/kg; the aqueous solubility stood at 46.5 µg/mL (≈ 162 µM).
Turning to `CC(C)NS(=O)(=O)c1ccc2c(c1)oc(=O)c1cc(S(=O)(=O)NC(C)C)ccc12`, the aqueous solubility came out at 0.47 µg/mL (≈ 1.07 µM).
`O[C@@H]1CO[C@H]2C[C@@H]1Nc1c(Cc3ccccc3)cccc12`: the MDR1-MDCK efflux ratio came out at 0.47; the intrinsic clearance, human liver microsomes stood at 33.5 mL/min/kg; the intrinsic clearance, rat liver microsomes was found to be 354 mL/min/kg; the aqueous solubility was determined as 30 µg/mL (≈ 106 µM).
For the molecule `OCCN1CCN(c2ccnc3ccc(Br)cc23)CC1`, the MDR1-MDCK efflux ratio is 1.74; the intrinsic clearance, human liver microsomes worked out at 12.5 mL/min/kg; the intrinsic clearance, rat liver microsomes is 114 mL/min/kg.
With `Cc1[nH]nc2c1C1(CCCCC1)CC(=O)N2`, the MDR1-MDCK efflux ratio came out at 3.36; the fraction unbound, human plasma was 0.21; the fraction unbound, rat plasma came out at 0.193; the intrinsic clearance, human liver microsomes was determined as 8.44 mL/min/kg. The molecule also returned an intrinsic clearance, rat liver microsomes of 45.6 mL/min/kg.
In the case of `C[C@]12C=CC(=O)C=C1CC[C@@H]1[C@@H]2[C@@H](O)C[C@@]2(C)[C@H]1CC[C@]2(O)C(=O)CO`, the MDR1-MDCK efflux ratio came to 5.44; the intrinsic clearance, human liver microsomes worked out at 25.4 mL/min/kg; the intrinsic clearance, rat liver microsomes came to 62.9 mL/min/kg.
As for `CC1CCN(Cc2ccc(NC(=O)c3ccccn3)cc2)CC1`, the MDR1-MDCK efflux ratio is 0.675; the intrinsic clearance, human liver microsomes is at most 4.74 mL/min/kg; the intrinsic clearance, rat liver microsomes is 16.2 mL/min/kg; the aqueous solubility is 40.8 µg/mL (≈ 132 µM).
Consider `CN(C)C(=O)c1cncc(N(C)CCN(C)C2CCCC2)n1`, for which the MDR1-MDCK efflux ratio was 20.2; the intrinsic clearance, human liver microsomes came out at 6.5 mL/min/kg; the intrinsic clearance, rat liver microsomes amounted to 32.3 mL/min/kg.
Take `Clc1ccc(CSc2nc(-c3ccccc3)cs2)cn1`: the intrinsic clearance, human liver microsomes was 221 mL/min/kg and the intrinsic clearance, rat liver microsomes turned out to be 2260 mL/min/kg.
For `Cc1nc(C(=O)NCC(=O)O)c(O)c2ccc(Oc3ccccc3)cc12`, the MDR1-MDCK efflux ratio worked out at 1.23; the intrinsic clearance, human liver microsomes was at most 4.74 mL/min/kg; the intrinsic clearance, rat liver microsomes is at most 10.7 mL/min/kg.
On to `CC(C)(C)n1ncc(C(=O)N2CCCn3ncnc32)c1C(F)(F)F`, for which the MDR1-MDCK efflux ratio worked out at 0.971; the intrinsic clearance, human liver microsomes was 27.9 mL/min/kg; the intrinsic clearance, rat liver microsomes was found to be 375 mL/min/kg; the aqueous solubility worked out at 46.2 µg/mL (≈ 135 µM).
